Among the data in patent US9643964B2, “3-(2-aminopyrimidin-4-yl)-5-(3-hydroxypropynyl)-1H-pyrrolo[2,3-C]pyridine derivatives as NIK inhibitors for the treatment of cancer” (Janssen Pharmaceutica NV, priority 2013, dated 2017) are IC50, EC50 and inhibition values, retold here.

In general, pIC50 refers to the negative decadic logarithm of the IC50, by convention in mol/L. What is called pEC50 is the EC50 on a negative log10 scale, so that one unit is a factor of ten.

The target of test [1] is T1, Recombinant Human NF-kappaB-Inducing Kinase (NIK/MAP3K14) (Homo sapiens, UniProt Q99558). The experiment in a line: Biological Assay A: inhibition of recombinant human NIK/MAP3K14 activity (MBP phosphorylation, Mesoscale). Type of test: biochemical. The following applies: for pIC50: averaged over all measurements on all batches, read-out: Biochemical (MSD MBP) IC50; for inhibition at 10 µM: read-out: Biochemical (MSD MBP) Max % Inhib @ 10 μM (Average). The procedure: Inhibition of Recombinant Human NF-kappaB-Inducing Kinase (NIK/MAP3K14) Activity
Assay buffer was 50 mM Tris pH 7.5 containing 1 mM EGTA (ethylene glycol tetraacetic acid), 1 mM DTT (dithiothreitol), 0.1 mM Na3VO4, 5 mM MgCl2, 0.01% Tween 20. Assays were carried out in 384 well Mesoscale high binding plates which had been coated with myelin basic protein (MBP) and blocked with bovine serum albumin to prevent non-specific protein binding. All compounds tested were dissolved in dimethyl sulfoxide (DMSO) and further dilutions were made in assay buffer. Final DMSO concentration was 1% (v/v) in assays. Incubations consisted of compound (1% DMSO in control and blank wells), 25 μM Adenosine-5′-triphosphate (ATP), and 10 nM NIK/MAP3K14 substituting enzyme with buffer in the blank wells. Incubations were carried out for 1 h at 25° C. and were followed by washing and sequential incubation with rabbit anti-phospho-MBP and anti-rabbit Ig Sulfotag antibody before reading bound Sulfotag on a Mesoscale Discovery. Signal obtained in the wells containing blank samples was subtracted from all other wells and IC50's were determined by fitting a sigmoidal curve to % inhibition of control versus Log10 compound concentration.

Test [2] relates to JJN-3 cells. The experiment in a line: Biological Assay C: antiproliferative activity on JJN-3 cells (CellTiter-Glo). Type of test: cell-based, human. The conditions noted are these: Homo sapiens, JJN-3, 72 h, 72 hr treatment; averaged values. In outline: (§1)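 Luminescent ATP signal (CellTiter-Glo) measures growth of myeloma cells following a 72 h compound treatment. Values for the time-zero blank are subtracted, and each mean of duplicate wells is given as percentage of the no-drug control.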
In general terms: In ATP-based viability assays light output follows the ATP content of the culture.

Test [3] deals with LP-1 cells. The experiment in a line: Biological Assay C: antiproliferative activity on LP-1 cells (CellTiter-Glo). It counts as cell-based, human. The following applies: Homo sapiens, LP-1, 72 h, 72 hr treatment; averaged values. In a few lines: as §1
The target of test [4] is T1, Recombinant Human NF-kappaB-Inducing Kinase (NIK/MAP3K14). The experiment in a line: Biological Assay A2: inhibition of auto-phosphorylation of recombinant human NIK/MAP3K14 (AlphaScreen). The following applies: for pIC50: auto-phosphorylation, averaged over all measurements on all batches, read-out: αscreen IC50; for inhibition at 10 µM: read-out: αscreen Max % Inhib @ 10 μM (Average). Type of test: biochemical. In outline:
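AlphaScreen readout of anti-phospho-IKK Ser176/180 signal after 1 h, 25° C. incubation of 0.2 nM GST-NIK with compound and 25 microM ATP (Tris pH 7.5 buffer, MgCl2, 1% DMSO final). IC50 from sigmoidal fit of blank-corrected % inhibition against Log10 concentration.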
In general terms: Alpha assays give light when donor and acceptor beads are brought close together.

Test [5] has as its system L-363 cells. Put plainly: Biological Assay C: antiproliferative activity on L-363 cells (CellTiter-Glo). The conditions noted are these: Homo sapiens, L-363, 72 h, 72 hr treatment; averaged values. Type of test: cell-based, human. In outline:
as §1

pEC50, pIC50: −log10 of the molar value.

T1 sequence (Q99558 whole entry): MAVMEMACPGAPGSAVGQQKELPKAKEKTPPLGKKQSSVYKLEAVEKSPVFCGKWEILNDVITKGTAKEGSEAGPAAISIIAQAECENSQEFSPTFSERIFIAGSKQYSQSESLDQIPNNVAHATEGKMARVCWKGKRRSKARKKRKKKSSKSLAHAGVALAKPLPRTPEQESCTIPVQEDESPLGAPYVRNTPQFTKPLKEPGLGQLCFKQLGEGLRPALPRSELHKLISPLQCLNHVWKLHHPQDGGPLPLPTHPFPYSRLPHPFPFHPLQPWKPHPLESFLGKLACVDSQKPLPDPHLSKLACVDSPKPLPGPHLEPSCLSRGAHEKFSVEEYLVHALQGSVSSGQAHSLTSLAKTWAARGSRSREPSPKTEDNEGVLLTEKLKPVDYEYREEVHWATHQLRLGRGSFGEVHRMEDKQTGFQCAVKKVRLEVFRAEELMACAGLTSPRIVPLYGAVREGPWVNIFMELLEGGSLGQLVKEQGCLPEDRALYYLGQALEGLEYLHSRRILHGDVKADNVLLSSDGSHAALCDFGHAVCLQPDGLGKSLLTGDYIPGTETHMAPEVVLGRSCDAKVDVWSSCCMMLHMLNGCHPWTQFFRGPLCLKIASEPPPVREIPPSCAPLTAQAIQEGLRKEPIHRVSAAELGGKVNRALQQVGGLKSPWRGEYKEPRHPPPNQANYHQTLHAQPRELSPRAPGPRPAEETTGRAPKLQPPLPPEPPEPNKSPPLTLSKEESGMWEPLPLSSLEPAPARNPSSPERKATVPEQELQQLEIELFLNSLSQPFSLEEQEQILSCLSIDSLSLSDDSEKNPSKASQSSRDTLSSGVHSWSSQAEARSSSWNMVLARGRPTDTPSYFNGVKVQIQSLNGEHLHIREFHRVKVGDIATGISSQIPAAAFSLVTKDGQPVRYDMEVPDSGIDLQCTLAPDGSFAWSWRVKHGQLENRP

For `CC(C)n1cc(-c2ccnc(N)n2)c2cc(C#CCO)ncc21` [Compound 13], the figures for the pIC50 in test [1] and in test [4] were 7.52 and 6.82, respectively. Also, the results for the pEC50 in test [2], in test [3] and in test [5] were 6.82, 6.15 and 7.44, respectively.

With `COCCC(C)(O)C#Cc1cc2c(-c3ccnc(N)n3)cn(CC(C)(C)O)c2cn1` (stereo not shown) [Compound 39], the pIC50 in test [1] was 6.03; in test [4], 5.80.

For the compound `CC(C)(O)Cn1cc(-c2ccnc(N)n2)c2cc(C#CC(C)(O)C3(C)COC3)ncc21` (stereo not shown) [Compound 47], the negative logarithm of the IC50 (pIC50) in test [1] was 5.54; in test [4] it was 5.04. Moreover, the negative-log EC50 (pEC50) in test [2], in test [3] and in test [5] was less than 5.00 in each case.

Regarding `CC(C)(O)Cn1cc(-c2ccnc(N)n2)c2cc(C#CCO)ncc21` [Compound 62], the pIC50 in test [1] was 6.60; in test [4] it was 6.17. Also, the negative logarithm of the EC50 (pEC50) in test [2] is 6.01; in test [3], 4.74; in test [5], 6.06.

For the compound `CN(C)C(=O)C(C)(O)C#Cc1cc2c(-c3ccnc(N)n3)cn(CC(C)(C)O)c2cn1` (stereo not shown) [Compound 63], the negative logarithm of the IC50 (pIC50) in test [1] is 6.22; in test [4], 6.11.

`CC(C)(O)C#Cc1cc2c(-c3nc(N)ncc3C(F)(F)F)cn(CC3CCOCC3)c2cn1` [Compound 71]: the pIC50 in test [1] is 7.59; in test [4], 7.21. Besides, the pEC50 in test [2] was 6.26; in test [3], 5.59; in test [5], 6.28.

`CC(C)(O)C#Cc1cc2c(-c3nc(N)ncc3C(F)(F)F)cn(CC(C)(C)O)c2cn1` [Compound 72]: the pIC50 was 8.20 in test [1] and 7.42 in test [4]. The results for the negative-log EC50 (pEC50) in test [2], in test [3] and in test [5] were 6.49, 5.14 and 6.72, respectively.

As to `CC(C)(O)C#Cc1cc2c(-c3nc(N)ncc3F)cn(CC3CCOCC3)c2cn1` [Compound 73], the pIC50 in test [1] was 7.25; in test [4], 7.15. In addition, the results for the negative-log EC50 (pEC50) in test [2], in test [3] and in test [5] were 6.72, 5.80 and 6.85, respectively.

As to `CC(C)(O)C#Cc1cc2c(-c3nc(N)ncc3F)cn(C3COC3)c2cn1` [Compound 74], the negative-log IC50 (pIC50) in test [1] is 7.77; in test [4] it was 7.37. Moreover, the pEC50 was 7.12 in test [2], 5.96 in test [3] and 7.35 in test [5].

For the compound `COCCn1cc(-c2ccnc(N)n2)c2cc(C#CC3(O)CCN(C)CC3)ncc21` [Compound 123], the inhibition at 10 µM in test [1] amounted to 23%; in test [4], 27%.

For the compound `COCCn1cc(-c2ccnc(N)n2)c2cc(C#CC(C)(O)C3CNC3)ncc21` (stereo not shown) [Compound 124], the inhibition at 10 µM stood at 40% in test [1] and 33% in test [4].

As to `COCCn1cc(-c2ccnc(N)n2)c2cc(C#CC3(O)CNC3)ncc21` [Compound 125], the inhibition at 10 µM was found to be 18% in test [1] and 24% in test [4].

`COCCOc1cnc(N)nc1-c1cn(C(C)C)c2cnc(C#CC(C)(O)C3CC3)cc12` (stereo not shown) [Compound 168]: the pEC50 in test [2] was 7.57; in test [3] it was 7.03; in test [5], 7.64. Besides, in test [4], the pIC50 was 7.44.
